The record followed here is patent publication US20040063681A1, “Methods for using gold (III) complexes as anti-tumor and anti-HIV agents” (priority 2002, published 2004).

Test [1] concerns Human Hepatocellular Carcinoma (HepG2). The test is described as follows: MTT cytotoxicity, HepG2. The test is classed as cell-based. To be noted: growth inhibition. An excerpt: (§1) Human promyelocytic leukemia (HL-60), human hepatocellular carcinoma (HepG2), Human cervix epitheloid carcinoma cells (HeLa) and human oral epidermoid carcinoma cells (KB-3-1), were obtained from American Type Culture Collection (ATCC) (Rockville, Md.). The multi-drug-resistant variant KB-V1 cell line was obtained by stepwise selections for vinblastine resistance as described by Shen et al., J. Biol. Chem. 261:7762-7770 (1986)], and was generously provided by Dr Michael Gottesman (NIH, Bethesda, Md.). Human nasopharyngeal carcinoma cells (SUNE1 and its cisplatin resistance variant, CNE1) were derived from poorly differentiated NPC in Chinese patients as described by Gu et al., Chin. J. Cancer 2:270-272 (1983), and were generously provided by Dr S. W. Tsao (The University of Hong Kong, Hong Kong, PRC). Cell culture flasks and 96 well microtitre plates were from Nalge Nunc hit. Culture medium, other medium constituents and phosphate buffered saline (PBS) were obtained from Gibco BRL (Rockville, Md.). Cell Proliferation Kit I (MTT) was purchased from Roche (Mannheim, Germany).
(§2) The anti-cancer activities of the gold(III) porphyrin complexes were evaluated toward some established human cancer cell lines: promyelocytic leukemia (HL-60), hepatocellular carcinoma (HepG2), cervix epitheloid carcinoma (HeLa), epidermoid carcinoma (KB-3-1) and its multi-drug resistant variant (KB-V1), nasopharyngeal carcinoma (SUNE1) and its cisplatin-resistant variant (CNE1). The experiments were carried out by following the MTT procedure (see Mosmann et al., J. Immunol. Methods 65:55-63 (1983). The IC50 values of the gold(III) porphyrin complexes together with that of cisplatin, and KAuCl4 are provided in Table 4a; and the IC50 values of the gold(III) Schiff-base and bis(pyridyl)carboxamide complexes are shown in Table 4b. The cytotoxicity profiles of some selected gold(III) porphyrin complexes toward SUNE1 and its cisplatin-resistant variant CNE1 are also shown in FIG. 7.

Test [2] has as its system Human Nasopharyngeal Carcinoma (cisplatin resistance, CNE1). As to the kind of experiment: MTT cytotoxicity, CNE1. The test is classed as cell-based. An excerpt: (§3) Human promyelocytic leukemia (HL-60), human hepatocellular carcinoma (HepG2), Human cervix epitheloid carcinoma cells (HeLa) and human oral epidermoid carcinoma cells (KB-3-1), were obtained from American Type Culture Collection (ATCC) (Rockville, Md.). […] Cell culture flasks and 96 well microtitre plates were from Nalge Nunc hit. Culture medium, other medium constituents and phosphate buffered saline (PBS) were obtained from Gibco BRL (Rockville, Md.). Cell Proliferation Kit I (MTT) was purchased from Roche (Mannheim, Germany).

In test [3] the test system is calf thymus DNA. As to the kind of experiment: UV-vis absorption titration with calf thymus DNA. Particulars: for hypochromicity / intrinsic binding constant (Kb): Tris buffer. In kind it is binding. The procedure:
The calf thymus DNA was purchased from Sigma-Aldrich Chemical Co. and was purified by phenol-chloroform extraction. The DNA was dissolved in buffer (5 mM Tris, 5 mM NaCl, pH 7.2). The concentration (per base pair) of calf thymus DNA was determined spectrophotometrically on the basic of ε260, 13,200 M^−1cm^−1bp.
Absorption Titration. The binding interaction of the gold(III) porphyrins to duplex DNA has been studied by UV-vis spectroscopy.
where [ctDNA] is the concentration of DNA, Δεap═|εA−εB| in which εA=Aobs/[complex], and Δε=|εB−εF|. εB and εF correspond to the extinction coefficient of DNA-bound gold(III) porphyrin and the free gold(III) porphyrins, respectively.
The effect of temperature on the intrinsic binding constants was investigated. Using the van't Hoff equation (2): […]

Test [4] can be described thus: Control UV-vis titration with sodium dodecyl sulfate instead of DNA. The test is classed as binding. Particulars: sodium dodecyl sulfate (0-5 μM) instead of DNA. An excerpt: See Neidle, S. DNA structure and recognition; Oxford University Press: Oxford, 1994; 74-79.
In test [5] the test system is Human Promyelocytic Leukemia (HL-60). As to the kind of experiment: MTT cytotoxicity, HL-60. To be noted: growth inhibition. In kind it is cell-based.
Text: as §1, §2

The subject of test [6] is Human Nasopharyngeal Carcinoma (SUNE1). The test is described as follows: MTT cytotoxicity, SUNE1. The test is classed as cell-based.
Text: as §3

The subject of test [7] is Human Cervix Epitheloid Carcinoma (HeLa). As to the kind of experiment: MTT cytotoxicity, HeLa. The test is classed as cell-based.
Text: as §3

Test [8] has as its system calf thymus DNA. As to the kind of experiment: Viscosity evaluation of DNA. Particulars: (η/ηo)^1/3 vs binding ratio r. An excerpt: Viscosity evaluation. The binding interaction of the gold(III) porphyrins can be further investigated by examining the change of DNA viscosity upon binding of the metalloporphyrin. If the metalloporphyrin binds to DNA by intercalation, this would cause chain elongation, unwinding and stiffening of the DNA helix as a consequence of untwisting of the base pairs and helical backbone needed to accommodate the intercalator.
For comparison, the viscosity profiles for ethidium bromide (intercalator) and Hoechst 33342 (minor groove binder) are also shown is FIG. 10.

A further test deals with plasmid DNA (pDR2). The test is described as follows: Restriction endonuclease (ApaI) fragmentation assay. To be noted: comparison compounds, lanes F and H of FIG. 8. An excerpt: Binding of the metalloporphyrin onto a duplex DNA such as plasmid DNA (pDR2) is expected to occupy the binding site of the restriction enzyme ApaI, thereby inhibiting the enzymatic DNA digestion. See Ikeda et al., J. Am. Chem. Soc. 104:296-297 (1982).
After ApaI digestion, (lane B), three bands corresponding to 6.6, 4.4 and 2.0 kbp were observed.

The target in test [9] is T1, HIV-1 reverse transcriptase (Human immunodeficiency virus type 1 group M subtype B, UniProt P04585).
T1 construct: treatment of HIV-1 RT in Lysis buffer (2 ng, 128.7 μL) with Complex 1j
As to the kind of experiment: HIV-1 reverse transcriptase activity, ELISA method. In kind it is biochemical. Particulars: drug concentration fixed at 6 μM. The procedure:
HIV-1 reverse transcriptase activities were measured by an ELISA method (see Eberle et al, J. Virol. Methods, 40:347-356 (1992) performed by incubating the enzyme with digoxigenin-labeled deoxyuridin-5′-triphosphate (dUTP) and the biotin-labeled analogue during reverse transcription starting from the template/primer hybrid poly(A)•oligo(dT)15. After reverse transcription, the newly synthesized DNA was immobilized onto streptavidin-coated ELISA wells, and the incorporation of the dioxigenin-labeled dUTP was assayed by chemiluminescence method. For example, treatment of HIV-1 RT in Lysis buffer (2 ng, 128.7 μL) with Complex 1j (1.3 μL of […] stock solution) dissolved in TBS at 37° C. produced significant RT activity inhibition (˜95%) after 30 min incubation.
(In general: In an ELISA, binding on a coated surface is turned into a signal by an enzyme label.)

Test [10] concerns human cancer cell lines (HL-60, HepG2, HeLa, KB-3-1, KB-V1, SUNE1, CNE1). The test is classed as cell-based. To be noted: killing oral epidermoid and nasopharyngeal cancer cells.
Text: as §1, with “Cell Proliferation Kit I (MTT) was purchased from Roche (Mannheim, Germany).” left out
The anti-cancer activities of the gold(III) porphyrin complexes were evaluated toward some established human cancer cell lines: promyelocytic leukemia (HL-60), hepatocellular carcinoma (HepG2), cervix epitheloid carcinoma (HeLa), epidermoid carcinoma (KB-3-1) and its multi-drug resistant variant (KB-V1), nasopharyngeal carcinoma (SUNE1) and its cisplatin-resistant variant (CNE1). […]

SMILES strings stand for the structures.

By IC50 is commonly meant the concentration needed to halve the response being measured. Read a high IC50 as weaker potency in that assay.

With `Fc1c(F)c(F)c(-c2c3nc(c(-c4c(F)c(F)c(F)c(F)c4F)c4ccc([n-]4)c(-c4c(F)c(F)c(F)c(F)c4F)c4nc(c(-c5c(F)c(F)c(F)c(F)c5F)c5ccc2[n-]5)C=C4)C=C3)c(F)c1F.[Au+3].[Cl-]` [Complex 1g], the IC50 worked out at 2310 nM in test [1]; 1450 nM in [2] (MTT, growth inhibition, cisplatin resistant); 1450 nM in test [5]; 2110 nM in [6] (MTT, growth inhibition); 3180 nM in test [7] (MTT, growth inhibition). Also, the “IC50 ratio [cisplatin/gold (III) porphyrin complexes] CNE1” value in test [2] was 28.1. The hypochromicity in the test with calf thymus DNA [3] (291.8 K) is 18.2%; in the test on calf thymus DNA [3] (297.6 K), 18.0%; in the test with calf thymus DNA [3] (301.4 K), 16.5%; with calf thymus DNA [3] (306.1 K), 10.1%; in the test with calf thymus DNA [3] (311.7 K), 8.7%. Besides, the “intrinsic binding constant (Kb)” value with calf thymus DNA [3] (291.8 K) is 0.73 × 10^6 dm^3mol^−1; in the test on calf thymus DNA [3] (297.6 K), 0.58 × 10^6 dm^3mol^−1; in the test on calf thymus DNA [3] (301.4 K), 0.47 × 10^6 dm^3mol^−1; in the test with calf thymus DNA [3] (306.1 K) it was 0.42 × 10^6 dm^3mol^−1; in the test with calf thymus DNA [3] (311.7 K), 0.34 × 10^6 dm^3mol^−1. In the test with calf thymus DNA [3] (binding to calf thymus DNA, van't Hoff analysis), the “ΔH°” value is reported as −7.0 ± 0.4 kcalmol^−1. Also, the “ΔG° (298 K)” value with calf thymus DNA [3] (binding to calf thymus DNA, van't Hoff analysis, 298 K) was −7.8 ± 0.5. Also, in test [4], the bathochromic shift turned out to be 6 nm. Moreover, the “hypochromicity of the Soret band” value in test [4] is on record as 48%. Besides, in test [6], the “IC50 ratio [cisplatin/gold (III) porphyrin complexes] SUNE1” value is 5.97. For the same molecule, the “IC50 ratio [cisplatin/gold (III) porphyrin complexes] HeLa” value in [7] turned out to be 3.52.
`CCOc1ccc(-c2nc3ccc(-c4nc5ccc(N6CCN(C)CC6)cc5[nH]4)cc3[nH]2)cc1` [Hoechst 33342, reference compound]: the “change in viscosity of the DNA” value in the test with calf thymus DNA [8] is “no appreciable change in viscosity of the DNA”. Further, the “effect on ApaI digestion of pDR2” value in the test with plasmid DNA (pDR2) is “complete inhibition of the DNA digestion”.
In the case of `[Au+3].[Cl-].[Cl-].[Cl-].[Cl-].[K+]` [KAu^IIICl4, reference compound], in [9], the “HIV-1 RT inhibition” value turned out to be 48%. Besides, in test [10], the “times less potent than Complex 1a” value was “about 40 times”.
